US11884708B2, “Stapled peptide inhibitors of nemo as potential anti-inflammatory and anti-cancer drugs” (INSTITUT PASTEUR, priority 2015, dated 2024)
Values belong to the compound of their own block, whether it stands above or below them. Where a SMILES comes first, the peptide text is derived from it. Bridges are numbered along the chain shown (N, C = ends). [ ]: non-standard residue; d: D form. The star is where a group is joined. BODIPYFLEthylmaleimide = Cc1cc(C)n2c1C=C1C=CC(CCC(=O)NCCN3C(=O)CC(*)C3=O)=[N+]1[B-]2(F)F; R8 = C=CCCCCCC[C@@](C)(N)C(=O)O; S5 = C=CCCC[C@](C)(N)C(=O)O

Key:
[1] = test system: 70Z3-C3 cells; assay: Cellular uptake of BODIPY-labeled peptides by FACS; format: cell-based; conditions: for reduction of the uptake of A-UBI-SAHND306-Q313 by endocytosis inhibitor: 30 min pre-incubation, nystatin 50 μg/ml, chlorpromazine 10 μg/ml, ethylisopropylamiloride 100 μM
Procedure: 2.2×10^5 cells in 100 μl of 70Z3-C3 were incubated with either 10 μM or with various doses of 10 μM, 5 μM and 1 μM of labeled-peptides at 37° C., 5% CO2. Similarly to fluorescence microscopy experiments, cells alone or incubated with BODIPY®-labeled BSA (ref) or BODIPY®-UBI devoid of the antennapedia cell penetrating sequence were used as negative control, whereas cells with BA-UBI [1] at 10 μM were used as positive control. After 2 h incubation, cells were washed 4 times with PBS at room temperature, and finally diluted 1:3 in PBS before subjected to FACS analysis. Along with the BODIPY® fluorophore the fluorescence intensity was recorded at 525±25 nm using the Gallios Flow cytometer (Beckman Coulter) to analyse each cells sample. Each internalization peptide was assessed by gating a population of 15,000 events and the data were analysed using Kaluza software version 1.2.
For determination of cellular uptake by flow cytometry, the BA-UBI-SAHND306-Q313 stapled peptide was first incubated with 2.2×10^5 70Z3-C3 cells in […] either at 4° C. or 37° C. for 2 h. Bodipy-labeled BSA, bodipy alone and bodipy-UBI were used as negative controls to verify the washing quality and efficient removal of any non-specific binding at the cell surface before FACS analysis. […] After 2 h of incubation, cells were washed four times with PBS at room temperature and diluted at 1:3 in PBS for FACS analysis. Samples were analyzed as previously described in the European patent (No: 15307137.8).

[2] = target: CC2-LZ domain of NEMO (Mus musculus, UniProt O88522); assay: Fluorescence anisotropy/polarization binding assay; conditions: for Binding affinity (FP) at 10 μM: fixed peptide concentration 10 μM
[3] = Temperature-induced denaturation followed by CD; format: physicochemical; conditions: 30 μM or 300 μM, ΔCp ≈ 0; for Tm: thermal denaturation by CD; for ΔH: van't Hoff enthalpy change at Tm
Procedure: Temperature-induced denaturation experiments were performed by measuring the ellipticity at 222 nm from 1° C. to 95° C. in 1° C. steps, at a rate of 1° C./min, with a 2 nm bandwidth. Thermodynamic parameters including the melting temperature (Tm) and the van't Hoff enthalpy change at the melting temperature (ΔHm) were determined by fitting the denaturation curves with the Gibbs-Helmholtz equation as described elsewhere, [10]. The heat capacity change (ΔCp) was assumed to be 0 as judged by ΔHm which yielded similar values within 10% at two independent peptide concentrations (30 and 300 μM). The ellipticity was converted to differential extinction coefficient Δε (M^−1·cm^−1) per residue taking into account the peptide concentration determined by amino acid analysis.
Thermal stability of the peptides was also investigated by performing thermal denaturation profiles followed by CD (FIGS. 1 C and D and Table III). […] Indeed, the helicity of UBI-Aib (49%) is only 1.16-fold increased at 1° C. compared to UBI (42%), while its melting temperature (Tm=−8° C.) is 2.25 times higher than that of UBI (Tm=−18° C.).

[4] = CD spectroscopy, α-helical content; format: physicochemical; conditions: 50 μM peptide, phosphate buffer pH 7.0, UBI in TFE taken as 100%

Sequence of CC2-LZ domain of NEMO (O88522 242-343 limits assumed): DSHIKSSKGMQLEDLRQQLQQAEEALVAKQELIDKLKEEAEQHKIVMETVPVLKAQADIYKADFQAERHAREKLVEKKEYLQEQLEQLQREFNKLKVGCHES

SMILES: CCN(c1nc(N)c(C(=O)N=C(N)N)nc1Cl)C(C)C [ethylisopropylamiloride, 5-(N-ethyl-N-isopropyl) amiloride, reference compound]
reduction of the uptake of A-UBI-SAHND306-Q313 by endocytosis inhibitor [1]: 26%

SMILES: CC[C@H](C)[C@@H]1NC(=O)[C@](C)(NC(=O)[C@H](C)NC(=O)[C@H](CCC(N)=O)NC(=O)[C@H](C)NC(=O)[C@H](CCCCN)NC(=O)[C@H](CC(C)C)NC(=O)[C@H](CSC2CC(=O)N(CCNC(=O)CCC3=[N+]4C(=Cc5c(C)cc(C)n5[B-]4(F)F)C=C3)C2=O)NC(C)=O)CCCCCCC=CCCC[C@@](C)(C(=O)N[C@@H](C)C(=O)N[C@@H](CCC(N)=O)C(=O)N[C@@H](CCCNC(=N)N)C(=O)N[C@@H](Cc2c[nH]cn2)C(=O)N[C@@H](C)C(=O)N[C@@H](CCCNC(=N)N)C(=O)N[C@@H](CCC(N)=O)C(=O)N[C@@H](CCCCN)C(N)=O)NC(=O)[C@H](Cc2ccccc2)NC(=O)[C@H](CCCNC(=N)N)NC(=O)[C@H](C)NC(=O)[C@H](CCCCN)NC(=O)[C@H](Cc2ccc(O)cc2)NC1=O (stereo partly shown) [UBI-SAHN D306-Q313 Q/Q] (Ac-C(BODIPYFLEthylmaleimide)LKAQA[R8]IYKARF[S5]AQRHARQK-NH2; staple 7-14)
cell internalization by FACS, in words [1]: became cell permeable

Kd ([2]; fixed peptide concentration 0.1 μM, read-out: Binding affinity (FP) at 0.1 μM): 24 ± 5 µM
SMILES: CC[C@H](C)[C@@H]1NC(=O)[C@](C)(NC(=O)[C@H](C)NC(=O)[C@H](CCC(N)=O)NC(=O)[C@H](C)NC(=O)[C@H](CCCCN)NC(=O)[C@H](CC(C)C)NC(=O)[C@H](CSC2CC(=O)N(CCNC(=O)CCC3=[N+]4C(=Cc5c(C)cc(C)n5[B-]4(F)F)C=C3)C2=O)NC(C)=O)CCCCCCC=CCCC[C@@](C)(C(=O)N[C@@H](C)C(=O)N[C@@H](CCC(=O)OC)C(=O)N[C@@H](CCCNC(=N)N)C(=O)N[C@@H](Cc2c[nH]cn2)C(=O)N[C@@H](C)C(=O)N[C@@H](CCCNC(=N)N)C(=O)N[C@@H](CCC(=O)OC)C(=O)N[C@@H](CCCCN)C(N)=O)NC(=O)[C@H](Cc2ccccc2)NC(=O)[C@H](CCCNC(=N)N)NC(=O)[C@H](C)NC(=O)[C@H](CCCCN)NC(=O)[C@H](Cc2ccc(O)cc2)NC1=O (stereo partly shown) [UBI-SAHN D306-Q313 OMe, LKAQAX2IYKARFX5AX7RHARX9K] (Ac-C(BODIPYFLEthylmaleimide)LKAQA[R8]IYKARF[S5]AE(OMe)RHARE(OMe)K-NH2; staple 7-14)
cell internalization by FACS, in words [1]: became cell permeable

SMILES: C[C@@H]1[C@H](O)[C@@H](C)/C=C/C=C/CC/C=C/C=C/C=C/C=C/C(O[C@H]2O[C@H](C)[C@@H](O)[C@H](N)[C@@H]2O)CC2O[C@](O)(CC(O)C(O)CCC(O)CC(O)CC(O)CC(=O)O[C@H]1C)CC(O)C2C(=O)O (stereo partly shown) [nystatin, reference compound]
reduction of the uptake of A-UBI-SAHND306-Q313 by endocytosis inhibitor [1]: 50%

ΔS [3]: A: −21 - cal. mol^−1.K^−1
Tm [3]: A: 5 - B: C°
ΔH [3]: A: −5950 - (cal. mol)^−1
Binding affinity (FP) at 10 μM [2]: weak binding
α-helical content at 1° C. [4]: A: 63% -
α-helical content at 1° C. ([4]; listed as UBI-SAHNA303-A310 (A)): 63%
α-helical content at 1° C. ([4]; listed as UBI-SAHNA310-A310 (A)): 63%
SMILES: CC[C@H](C)[C@@H]1NC(=O)[C@H](CC(=O)O)NC(=O)[C@H](C)NC(=O)[C@H](CCC(N)=O)NC(=O)[C@](C)(NC(=O)[C@H](CCCCN)NC(=O)[C@H](CC(C)C)NC(=O)[C@H](CSC2CC(=O)N(CCNC(=O)CCC3=[N+]4C(=Cc5c(C)cc(C)n5[B-]4(F)F)C=C3)C2=O)NC(C)=O)CCCCCC/C=C\CCC[C@@](C)(C(=O)N[C@@H](CCCNC(=N)N)C(=O)N[C@@H](Cc2ccccc2)C(=O)N[C@@H](CCC(N)=O)C(=O)N[C@@H](C)C(=O)N[C@@H](CCC(=O)O)C(=O)N[C@@H](CCCNC(=N)N)C(=O)N[C@@H](Cc2c[nH]cn2)C(=O)N[C@@H](C)C(=O)N[C@@H](CCCNC(=N)N)C(=O)N[C@@H](CCC(=O)O)C(=O)N[C@@H](CCCCN)C(N)=O)NC(=O)[C@H](CCCCN)NC(=O)[C@H](Cc2ccc(O)cc2)NC1=O (stereo partly shown) [UBI-SAHN A303-A310 (A)] (Ac-C(BODIPYFLEthylmaleimide)LK[R8]QADIYK[S5]RFQAERHAREK-NH2; staple (Z) 4-11; N-terminus and C-terminus assumed)

ΔS [3]: B: −21 cal. mol^−1.K^−1
Tm [3]: 33 ± 0.3 C°
ΔH [3]: B: −6510 (cal. mol)^−1
Binding affinity (FP) at 10 μM [2]: weak binding
α-helical content at 1° C. [4]: B: 80%
α-helical content at 1° C. ([4]; listed as UBI-SAHNA303-A310 (B)): 80%
SMILES: CC[C@H](C)[C@@H]1NC(=O)[C@H](CC(=O)O)NC(=O)[C@H](C)NC(=O)[C@H](CCC(N)=O)NC(=O)[C@](C)(NC(=O)[C@H](CCCCN)NC(=O)[C@H](CC(C)C)NC(=O)[C@H](CSC2CC(=O)N(CCNC(=O)CCC3=[N+]4C(=Cc5c(C)cc(C)n5[B-]4(F)F)C=C3)C2=O)NC(C)=O)CCCCCC/C=C/CCC[C@@](C)(C(=O)N[C@@H](CCCNC(=N)N)C(=O)N[C@@H](Cc2ccccc2)C(=O)N[C@@H](CCC(N)=O)C(=O)N[C@@H](C)C(=O)N[C@@H](CCC(=O)O)C(=O)N[C@@H](CCCNC(=N)N)C(=O)N[C@@H](Cc2c[nH]cn2)C(=O)N[C@@H](C)C(=O)N[C@@H](CCCNC(=N)N)C(=O)N[C@@H](CCC(=O)O)C(=O)N[C@@H](CCCCN)C(N)=O)NC(=O)[C@H](CCCCN)NC(=O)[C@H](Cc2ccc(O)cc2)NC1=O (stereo partly shown) [UBI-SAHN A303-A310 (B)] (Ac-C(BODIPYFLEthylmaleimide)LK[R8]QADIYK[S5]RFQAERHAREK-NH2; staple (E) 4-11; N-terminus and C-terminus assumed)

SMILES: CN(C)CCCN1c2ccccc2Sc2ccc(Cl)cc21 [chlorpromazine, reference compound]
inhibition at 10 µg/mL ([1]; read-out: reduction of the uptake of A-UBI-SAHND306-Q313 by endocytosis inhibitor): 59%
